Source: patent publication US10759816B2, “Heterocyclic compounds as RSV inhibitors” (Enanta Pharmaceuticals, Inc., priority 2016, dated 2020)

Test system: genotype A, "Long" strain RSV
Assay: RSV-A in vitro cytoprotection assay in HEp-2 cells (ATPlite readout of cell viability)
Assay type: cell-based, Human respiratory syncytial virus
Details: human respiratory syncytial virus, HEp-2, HEp-2 cells, genotype A “Long” strain RSV, cytoprotection; read-out: Human RSV-A (“Long” strain) EC50
Excerpt: RSV is a single stranded negative sense RNA virus that causes respiratory tract infections which can be dangerous to infants, the elderly, and immunosuppressed individuals. Currently there is no vaccine, and therapeutic options are both costly and of limited effectiveness. These approved treatments are Ribavirin, and Palivizumab/Synagis (a monoclonal antibody). RSV has two genotypes, A and B, which differ primarily in the structure of the virus' surface “G” attachment protein. Our current primary screen focuses on RSV-A and uses an in vitro cytoprotection assay where compounds are added in 2-fold dilutions to cells which are then subjected to fully replicative viral particles. Cell viability is measured several days later along with separate measurements of compound cytotoxicity. This report focuses on the results of our most recent screening of compounds.
HEp-2 cells, (originally derived from tumors grown in irradiated-cortisonised weanling rats that had been injected with epidermoid carcinoma tissue from a person's larynx, but later found to be indistinguishable from HeLa cells by PCR DNA analysis), were used for the culturing of genotype A, “Long” strain RSV. Flasks were inoculated with RSV and viral stocks were collected once cytopathic effect (CPE) was greater than 90%. Viral stocks in 25% sucrose media were snap frozen using liquid nitrogen to increase viral stability. Viral stock titers were quantified by tissue culture infectious dose 50% (TCID50) using 8,000 cells per well and 3-fold viral dilutions across a 96-well plate, cultured for 4 days.
Following extensive parameter testing, the final assay is run as follows: HEp-2 cells are seeded into the inner 60 wells of a 96-well plate at 8,000 cells per well in a volume of 50 μL using Growth Media (DMEM without phenol red, 1% L-Glut, 1% Penn/Strep, 1% nonessential amino acids, 10% FBS). 2-Fold serial dilutions of control and test compounds are added to the wells in duplicate in a total volume of 25 μL. Viral stock is then added to the wells in a volume of 25 μL, bringing the total volume of each well to 100 μL. Each 96-well plate has a control column of 6 wells with cells and virus but no compound (negative control, max CPE), a column with cells but no compound or virus (positive control, minimum CPE), and a column with no cells or virus or compound (background plate/reagent control). The control wells with cells but no virus are given an additional 25 uL of growth media containing an equal quantity of sucrose as those wells receiving the viral stock in order to keep consistent in media and volume conditions. The outer wells of the plate are filled with 125 μL of growth media to act as a thermal and evaporative moat around the test wells. Following a 4-day incubation period, the plates are read using ATPlite (50 uL added per well), which quantifies the amount of ATP (a measure of cell health) present in each well. Assay plates are read using the Envision luminometer. In parallel, cytotoxicity is examined on an additional 96-well plate treated in an identical manner, but substituting the 25 μL of viral stock for 25 μL of growth media. […] EC50 ranges are as follows: A <0.4 μM; B 0.4-0.8 μM; C >0.8 μM.

Structure (SMILES)	EC50
O=C(NC1CC1)c1cc2c(s1)-c1ccccc1N(C(=O)c1cccc(N3CCOC[C@@H]3c3ccccc3)n1)CC2 [Example 276]	> 800 nM
Cc1cccc(F)c1NC(=O)c1cc2c(s1)-c1ccccc1N(C(=O)c1cccc(N[C@@H](C)c3ccccn3)n1)CC2 [Example 340]	> 800 nM
COCCN(c1ccccc1)c1cccc(C(=O)N2CCc3cc(C(=O)Nc4c(C)cccc4F)sc3-c3ccccc32)n1 [Example 115]	< 400 nM
Cc1cccc(F)c1NC(=O)c1cc2c(s1)-c1ccccc1N(C(=O)c1cccc(N3CCCCC(F)(F)C3)n1)CC2 [Example 445]	< 400 nM
CC(=O)NCCN(C)c1cccc(C(=O)N2CCc3cc(C(=O)Nc4c(C)cccc4F)sc3-c3ccccc32)n1 [Example 372]	400 to 800 nM
Cc1cccc(F)c1NC(=O)c1cc2c(s1)-c1ccccc1N(C(=O)c1cccc(N3CCCOCC3=O)n1)CC2 [Example 401]	> 800 nM
O=C(NC1CC1)c1cc2c(s1)-c1ccccc1N(C(=O)c1ccc(Cl)c(N3CCOCC3)n1)CC2 [Example 42]	400 to 800 nM
CN(Cc1cccnc1)c1cccc(C(=O)N2CCc3cc(C(=O)NC4CC4)sc3-c3ccccc32)n1 [Example 295]	> 800 nM
Cc1cccc(F)c1NC(=O)c1cc2c(s1)-c1ccccc1N(C(=O)c1cccc(N3C[C@@H](O)C[C@@H]3C)n1)CC2 [Example 495]	< 400 nM
Cc1cccc(F)c1NC(=O)c1cc2c(s1)-c1ccccc1N(C(=O)c1cccc(N3CCS(=O)(=O)c4ccc(F)cc4C3)n1)CC2 [Example 436]	< 400 nM
O=C(NC1CC1)c1cc2c(s1)-c1ccccc1N(C(=O)c1cccc(-c3ccc(N4CCOCC4)nc3)n1)CC2 [Example 89]	400 to 800 nM
CCS(=O)(=O)n1cc(-c2cccc(C(=O)N3CCc4cc(C(=O)Nc5c(C)cccc5F)sc4-c4ccccc43)n2)c(C2CC2)n1 [Example 220]	400 to 800 nM
O=C(NC1CC1)c1cc2c(s1)-c1ccccc1N(C(=O)c1cccc(-n3ccc4ccccc43)n1)CC2 [Example 112]	> 800 nM
Cc1noc([C@H]2C[C@H](O)CN2c2cccc(C(=O)N3CCc4cc(C(=O)Nc5c(C)cccc5F)sc4-c4ccccc43)n2)n1 [Example 497]	> 800 nM
CNC(=O)CCN(C)c1cccc(C(=O)N2CCc3cc(C(=O)Nc4c(C)cccc4F)sc3-c3ccccc32)n1 [Example 324]	400 to 800 nM
CC(=O)N1CC(NC(=O)c2cc3c(s2)-c2ccccc2N(C(=O)c2cccc(-c4c[nH]nc4C4CC4)n2)CC3)C1 [Example 185]	> 800 nM
O=C(NC1CC1)c1cc2c(s1)-c1ccccc1N(C(=O)c1cc(N3CCCOCC3)ncn1)CC2 [Example 50]	> 800 nM
CC1CN(c2cccc(C(=O)N3CCc4cc(C(=O)NC5CC5)sc4-c4ccccc43)n2)CC(C)O1 (centres unmarked) [Example 24]	400 to 800 nM
Cc1cccc(F)c1NC(=O)c1cc2c(s1)-c1ccccc1N(C(=O)c1cccc(-c3ccc4nccc(Cl)c4c3)n1)CC2 [Example 189]	> 800 nM
O=C(NC1CS(=O)(=O)C1)c1cc2c(s1)-c1ccccc1N(C(=O)c1cccc(-c3c[nH]nc3C3CC3)n1)CC2 [Example 181]	> 800 nM
Cc1cccc(F)c1NC(=O)c1cc2c(s1)-c1ccccc1N(C(=O)c1cccc(N(C)Cc3ccncc3)n1)CC2 [Example 339]	< 400 nM
Cc1cccc(F)c1NC(=O)c1cc2c(s1)-c1ccccc1N(C(=O)c1cccc(NCC3(CS(C)(=O)=O)CC3)n1)CC2 [Example 467]	400 to 800 nM
Cc1cccc(F)c1NC(=O)c1cc2c(o1)-c1ccccc1N(C(=O)c1ccc(NC(=O)c3cccnc3N3CC4(CCOCC4)C3)cc1)CC2 [Example 135]	< 400 nM
COc1ccc2c(ccn2-c2cccc(C(=O)N3CCc4cc(C(=O)Nc5c(C)cccc5F)sc4-c4ccccc43)n2)c1 [Example 120]	< 400 nM
COc1ccc(CN(C)c2cccc(C(=O)N3CCc4cc(C(=O)Nc5c(C)cccc5F)sc4-c4ccccc43)n2)cc1 [Example 344]	< 400 nM
Cc1cccc(F)c1NC(=O)c1cc2c(s1)-c1ccccc1N(C(=O)c1cccc(N3C[C@@H](N)C[C@@H]3C)n1)CC2 [Example 390]	> 800 nM
COc1ccc(-c2nc(C(=O)N3CCc4cc(C(=O)NC5CC5)sc4-c4ccccc43)ccc2C#N)cn1 [Example 70]	> 800 nM

Structure (SMILES)	EC50
Cc1cnc(N2CCOCC2)c(NC(=O)c2ccc(C(=O)N3CCc4cc(C(=O)Nc5c(C)cccc5F)sc4-c4ccccc43)cc2)c1 [Example 137]	> 800 nM
O=C(NC1CC1)c1cc2c(s1)-c1ccccc1N(C(=O)c1cccc(C3CCN(C4COC4)CC3)n1)CC2 [Example 57]	400 to 800 nM
Cc1cccc(F)c1NC(=O)c1cc2c(s1)-c1ccccc1N(C(=O)c1cccc(-c3cnc(C(F)(F)F)n3C3CC3)n1)CC2 [Example 202]	< 400 nM
Cc1cccc(F)c1NC(=O)c1cc2c(s1)-c1ccccc1N(C(=O)c1cccc(N3CCN(S(C)(=O)=O)Cc4ccccc43)n1)CC2 [Example 379]	> 800 nM
CC(C)Oc1ccc(-c2cccc(C(=O)N3CCc4cc(C(=O)NC5CC5)sc4-c4ccccc43)n2)cn1 [Example 75]	400 to 800 nM
Cc1cccc(F)c1NC(=O)c1cc2c(s1)-c1ccccc1N(C(=O)c1cccc(-c3c(C)n[nH]c3C)n1)CC2 [Example 209]	< 400 nM
Cc1cccc(F)c1NC(=O)c1cc2c(s1)-c1ccccc1N(C(=O)c1cccc(NC3CCS(=O)(=O)CC3)n1)CC2 [Example 454]	> 800 nM
Cc1cccc(F)c1NC(=O)c1cc2c(s1)-c1ccccc1N(C(=O)c1cccc(N(C)C3CCS(=O)(=O)CC3)n1)CC2 [Example 455]	> 800 nM
O=C(NC1CC1)c1cc2c(s1)-c1ccccc1N(C(=O)c1cccc(NC3CCOCC3)n1)CC2 [Example 61]	> 800 nM
O=C(Nc1ccc[nH]c1=O)c1cc2c(s1)-c1ccccc1N(C(=O)c1cccc(N3CCOc4ccccc4C3)n1)CC2 [Example 303]	> 800 nM
Cc1cccc(F)c1NC(=O)c1cc2c(s1)-c1ccccc1N(C(=O)c1cccc(N3CCOc4cccc(F)c4C3)n1)CC2 [Example 368]	< 400 nM
O=C(NC1CC1)c1cc2c(s1)-c1ccccc1N(C(=O)c1ccc3ccc(-c4ccncc4)nc3c1)CC2 [Example 187]	> 800 nM
Cc1cccc(F)c1NC(=O)c1cc2c(s1)-c1ccccc1N(C(=O)c1cccc(-c3ccc4c(c3)CN(C)C4=O)n1)CC2 [Example 195]	< 400 nM
Cc1cc(-c2cccc(C(=O)N3CCc4cc(C(=O)Nc5ccccc5N)sc4-c4ccccc43)n2)n(C)n1 [Example 239]	> 800 nM
O=C(NC1CC1)c1cc2c(s1)-c1ccccc1N(C(=O)c1cccc(N3CCCOCC3)n1)CC2 [Example 17]	< 400 nM
Cc1cccc(F)c1NC(=O)c1cc2c(s1)-c1ccccc1N(C(=O)c1cccc(-c3ccc4c(c3)COC4)n1)CC2 [Example 192]	400 to 800 nM
COc1ccc(-n2cncc2-c2cccc(C(=O)N3CCc4cc(C(=O)Nc5c(C)cccc5F)sc4-c4ccccc43)n2)cc1 [Example 204]	> 800 nM
Cc1cccc(F)c1NC(=O)c1cc2c(s1)-c1ccccc1N(C(=O)c1cccc(N(C)CC3CCCO3)n1)CC2 (centres unmarked) [Example 461]	< 400 nM
COC(=O)n1cc(-c2ccc(C(=O)N3CCc4cc(C(=O)Nc5c(C)cccc5F)sc4-c4ccccc43)cc2)c2cccnc21 [Example 267]	> 800 nM
O=C(NCC1CC1)c1cc2c(s1)-c1ccccc1N(C(=O)c1cccc(N3CCCOCC3)n1)CC2 [Example 100]	< 400 nM
CNC(=O)n1ncc(-c2cccc(C(=O)N3CCc4cc(C(=O)Nc5c(C)cccc5F)sc4-c4ccccc43)n2)c1C1CC1 [Example 218]	< 400 nM
Cc1cncc(-c2cccc(C(=O)N3CCc4cc(C(=O)NC5CC5)sc4-c4ccccc43)n2)c1 [Example 155]	> 800 nM
COC[C@H]1CCCN1c1cccc(C(=O)N2CCc3cc(C(=O)Nc4c(C)cccc4F)sc3-c3ccc(Br)cc32)n1 [Example 498]	< 400 nM
COC[C@@H]1CCCN1c1cccc(C(=O)N2CCc3cc(C(=O)Nc4c(C)cccc4F)sc3-c3ccccc32)n1 [Example 505]	< 400 nM
Cc1cccc(F)c1NC(=O)c1cc2c(s1)-c1ccccc1N(C(=O)c1cccc(-n3cnc4ncccc43)n1)CC2 [Example 122]	> 800 nM
Cc1cccc(F)c1NC(=O)c1cc2c(s1)-c1ccccc1N(C(=O)c1cccc(N3CCOC4(CCCC4)C3)n1)CC2 [Example 416]	< 400 nM
